Earlier results, collected in patent publication US20110159092A1 (MICRO LABS LIMITED, priority 2009, published 2011).

Legend:
enterococci = conditions: against enterococci
streptococci = conditions: majority of strains
staphylococci = conditions: against staphylococci
bacteria = conditions: background statement

Compound: CC(=O)NC[C@H]1CN(c2ccc(N3CCOCC3)c(F)c2)C(=O)O1 [Linezolid, (S)-N-({3-[3-fluoro-4-(morpholin-4-yl)phenyl]-2-oxo-1,3-oxazolidin-5-yl}methyl)acetamide]
- time-kill result (enterococci): bacteriostatic
- time-kill result (streptococci): bactericidal
- time-kill result (staphylococci): bacteriostatic
- MIC (bacteria): 1 to 4 µg/mL
